Measurements from patent US20230365541A1, “INHIBITOR OF ENHANCER OF ZESTE HOMOLOGUE 2, AND USE THEREOF” (HAISCO PHARMACEUTICALS PTE. LTD., priority 2020, published 2023).
Read-outs that look alike come from different tables or passages of the source. Each block holds one molecule with its values, some of them ahead of it.

Columns and labels:
EZH2 = EZH2 (Homo sapiens (Human), UniProt Q15910); test: Test method for EZH2 enzyme activity; type: biochemical; conditions: H3K27(21-44) and [3H]-SAM
Experimental: The compounds were dissolved in DMSO, formulated into 10 mM solutions and serially diluted with DMSO to obtain 100-fold the final concentration. 200 nL of the solutions of the compounds was transferred to a 384-well plate (Perkin Elmer, Cat. No. 6007299) by using Echo550. EZH2 (BPS, Cat. No. 51004) was diluted with 1×assay buffer (50 mM Tris-HCl 9.0, 0.01% Tween-20, 1 mM DTT) to 2-fold the final concentration (EZH2: 3 nM). A mixed solution of H3K27(21-44) and [3H]-SAM (PerkinElmer, Lot. No. 2146246) (H3K27(21-44): 200 nM, [3H]-SAM: 100 nM) was formulated. The EZH2 diluted solution was taken and added to the 384-well plate at 10 μL/well (10 μL of 1×assay buffer was added in the control group). The plate was sealed and then incubated at room temperature for 15 minutes. 10 μL of the mixed solution of H3K27 (21-44) and [3H]-SAM was added to each well. The plate was sealed and then incubated at room temperature for 60 minutes. 50 μM of SAM (Sigma, Cat. No. A7007) was formulated at low temperature and added to the 384-well plate at 10 μL/well. The sample was taken at 25 μL/well, transferred to a flashplate and incubated at room temperature for at least 1 hour. The flashplate was washed 3 times with a plate washing liquid (dH2O+0.1% Tween-20) and read by using Microbeta. The inhibition rate was calculated in Excel according to: inhibition rate (%)=(maximum valuepositive control−detection signal value)/(maximum valuepositive control−minimum valuenegative control)*100, and IC50 values were fitted by using XL-Fit.

[1] = Pharmacokinetic experiment in mice (intravenous 5 mg/kg or intragastric 30 mg/kg); type: in vivo; conditions: for F %: PO 30 mg/kg vs IV 5 mg/kg
Experimental: The administration was performed according to table 5.
The concentrations of the compounds in EDTA-K2 anticoagulant plasma were determined by the LC-MS/MS method. The linear range of the standard curve of the compounds is 2-2000 ng/mL. After subjected to precipitating proteins with acetonitrile, the samples were analyzed by LC-MS/MS. The standard curve was subjected to a regression calculation using the weighted least square method (W=1/X^2), and quantified by calculating the ratio of test compound peak area to internal standard peak area.
• (1) except to the blank sample, 400 μL of internal standard working solution (Verapamil internal standard concentration in precipitant acetonitrile is 10.0 ng/mL) was added to a 1.5 mL centrifuge tube containing 30 μL of standard curve samples and quality control samples; • 200 μL of internal standard working solution (Verapamil internal standard concentration in precipitant acetonitrile is 10.0 ng/mL) was added to a 1.5 mL centrifuge tube containing 15 μL of unknown samples; • and 400 μL of acetonitrile was added to the blank sample; • (2) the mixture was mixed evenly for about 1 min in a vortex mixer; • (3) centrifugation was carried out at 10000 rpm at 4C for 10 mi; • (4) 175 μL of the supernatant was transferred to a new 96-well polypropylene plate, and then the plate was sealed and placed in a 10° C. sample tray for injection.

[2] = ICR mice, IV 5 mg/kg, listed as Compound 44, Isomer 2
[3] = ICR mice, PO 30 mg/kg, listed as Compound 44, Isomer 2
[4] = ICR mice, IV 5 mg/kg, listed as Compound 53, Isomer 2
[5] = ICR mice, PO 30 mg/kg, listed as Compound 53, Isomer 2

Chain of EZH2 (Q15910 other isoform, or with tags, fused parts or gaps isoform Q15910-2): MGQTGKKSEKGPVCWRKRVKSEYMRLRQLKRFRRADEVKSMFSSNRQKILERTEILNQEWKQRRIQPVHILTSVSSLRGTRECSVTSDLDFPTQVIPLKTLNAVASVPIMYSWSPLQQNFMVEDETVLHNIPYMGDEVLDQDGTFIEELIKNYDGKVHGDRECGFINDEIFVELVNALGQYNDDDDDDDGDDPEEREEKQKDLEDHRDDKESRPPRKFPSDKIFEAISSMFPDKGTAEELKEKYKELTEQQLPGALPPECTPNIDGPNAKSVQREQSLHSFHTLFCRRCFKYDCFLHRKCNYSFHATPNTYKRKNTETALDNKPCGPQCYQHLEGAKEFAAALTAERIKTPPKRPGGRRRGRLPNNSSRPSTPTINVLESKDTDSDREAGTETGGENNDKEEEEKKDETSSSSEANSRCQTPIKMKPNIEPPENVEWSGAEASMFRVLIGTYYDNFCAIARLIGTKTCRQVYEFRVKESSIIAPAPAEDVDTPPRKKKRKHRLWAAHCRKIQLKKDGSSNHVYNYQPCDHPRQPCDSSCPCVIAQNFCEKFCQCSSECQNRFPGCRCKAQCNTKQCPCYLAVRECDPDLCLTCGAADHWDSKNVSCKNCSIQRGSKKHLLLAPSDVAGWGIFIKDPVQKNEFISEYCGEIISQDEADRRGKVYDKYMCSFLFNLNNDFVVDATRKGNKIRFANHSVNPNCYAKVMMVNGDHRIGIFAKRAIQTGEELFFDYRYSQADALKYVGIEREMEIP
Chain of EZH2 (O75530 2-441 partner): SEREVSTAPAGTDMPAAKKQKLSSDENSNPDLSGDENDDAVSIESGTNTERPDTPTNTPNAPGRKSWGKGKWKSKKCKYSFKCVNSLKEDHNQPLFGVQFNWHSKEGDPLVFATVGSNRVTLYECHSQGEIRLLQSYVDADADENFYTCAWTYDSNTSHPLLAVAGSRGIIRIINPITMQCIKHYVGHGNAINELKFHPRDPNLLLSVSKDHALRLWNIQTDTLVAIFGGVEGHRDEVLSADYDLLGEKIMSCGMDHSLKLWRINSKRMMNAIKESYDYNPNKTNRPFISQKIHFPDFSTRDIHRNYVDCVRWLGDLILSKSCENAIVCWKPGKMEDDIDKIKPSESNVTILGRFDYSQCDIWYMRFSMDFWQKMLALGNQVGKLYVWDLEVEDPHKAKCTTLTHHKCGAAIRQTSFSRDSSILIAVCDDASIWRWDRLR
Chain of EZH2 (Q15022 2-739 partner): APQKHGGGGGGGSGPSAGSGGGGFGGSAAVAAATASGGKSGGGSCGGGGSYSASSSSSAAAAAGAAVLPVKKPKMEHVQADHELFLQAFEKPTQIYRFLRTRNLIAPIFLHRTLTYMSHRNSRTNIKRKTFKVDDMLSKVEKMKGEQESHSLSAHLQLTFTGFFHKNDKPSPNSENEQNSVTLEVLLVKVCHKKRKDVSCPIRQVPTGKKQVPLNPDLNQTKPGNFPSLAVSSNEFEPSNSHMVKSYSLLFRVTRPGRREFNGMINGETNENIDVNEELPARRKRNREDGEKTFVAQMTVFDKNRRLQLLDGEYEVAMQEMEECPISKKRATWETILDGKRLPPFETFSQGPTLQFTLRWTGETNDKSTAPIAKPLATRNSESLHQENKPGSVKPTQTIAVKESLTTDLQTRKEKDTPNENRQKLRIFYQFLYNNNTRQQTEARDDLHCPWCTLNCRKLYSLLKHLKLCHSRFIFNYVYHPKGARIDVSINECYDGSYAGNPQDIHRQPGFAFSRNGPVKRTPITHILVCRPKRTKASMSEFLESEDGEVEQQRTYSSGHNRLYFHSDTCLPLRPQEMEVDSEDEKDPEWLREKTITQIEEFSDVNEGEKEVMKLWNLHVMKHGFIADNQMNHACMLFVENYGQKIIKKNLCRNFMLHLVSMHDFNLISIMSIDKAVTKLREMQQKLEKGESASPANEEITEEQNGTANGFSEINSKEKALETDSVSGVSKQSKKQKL
Chain of EZH2 (Q09028 2-425 partner): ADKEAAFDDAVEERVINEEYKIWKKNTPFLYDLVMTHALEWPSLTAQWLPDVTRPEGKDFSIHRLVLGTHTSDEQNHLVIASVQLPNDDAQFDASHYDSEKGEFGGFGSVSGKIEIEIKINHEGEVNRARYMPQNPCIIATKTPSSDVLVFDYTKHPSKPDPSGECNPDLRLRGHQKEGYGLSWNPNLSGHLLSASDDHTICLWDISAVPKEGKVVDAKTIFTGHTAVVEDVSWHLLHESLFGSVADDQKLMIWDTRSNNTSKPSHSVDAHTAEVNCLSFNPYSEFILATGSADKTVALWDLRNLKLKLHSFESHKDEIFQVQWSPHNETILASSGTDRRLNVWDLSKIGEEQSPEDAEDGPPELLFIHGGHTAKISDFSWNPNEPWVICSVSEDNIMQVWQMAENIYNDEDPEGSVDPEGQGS
Chain of EZH2 (Q6ZN18 whole entry partner): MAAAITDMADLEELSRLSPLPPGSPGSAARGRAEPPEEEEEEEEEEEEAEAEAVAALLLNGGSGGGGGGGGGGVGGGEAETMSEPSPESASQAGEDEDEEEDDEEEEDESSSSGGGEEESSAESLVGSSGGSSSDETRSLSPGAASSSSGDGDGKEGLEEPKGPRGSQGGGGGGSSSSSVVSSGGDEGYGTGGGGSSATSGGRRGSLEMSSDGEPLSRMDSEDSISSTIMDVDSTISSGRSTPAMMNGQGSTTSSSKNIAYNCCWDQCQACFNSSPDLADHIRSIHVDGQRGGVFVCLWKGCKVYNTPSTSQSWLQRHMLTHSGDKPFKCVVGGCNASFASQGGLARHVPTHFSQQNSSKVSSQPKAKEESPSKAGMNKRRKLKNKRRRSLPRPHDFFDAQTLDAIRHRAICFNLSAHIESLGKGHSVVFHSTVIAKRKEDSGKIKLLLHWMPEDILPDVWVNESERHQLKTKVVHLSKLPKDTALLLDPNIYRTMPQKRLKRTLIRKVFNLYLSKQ

Compound: [2H]C([2H])(NC(=O)c1cc(Cl)c2c(c1C)OC(C)([C@H]1CC[C@@H](NC3CC(F)(F)C3)CC1)O2)c1c(SC)cc(C)[nH]c1=O (single isomer, unassigned) [Compound 44, isomer 2, 7-chloro-2-(4-((3,3-difluorocyclobutyl)amino)cyclohexyl)-2,4-dimethyl-N-((6-methyl-4-(methylthio)-2-oxo-1,2-dihydropyridin-3-yl)methyl-d2)benzo[d][1,3]dioxole-5-carboxamide]
IC50 (EZH2): 510 pM | AUC [1, 2]: 713 ng·h/mL | C0 [1, 2]: 2482 ng/mL | T1/2 [1, 2]: 2.33 h | F % ([1]; ICR mice, listed as Compound 44, Isomer 2): 27.4% | AUC [1, 3]: 917 ng·h/mL | Cmax [1, 3]: 463 ng/mL | T1/2 [1, 3]: 1.81 h | Tmax ([1]; male, ICR, mouse, plasma, po, 30 mg/kg, PO 30 mg/kg, read-out: Tmax): 1 h

Compound: [2H]C([2H])(NC(=O)c1cc(Cl)c2c(c1C)OC(C)(C1CCC(N[C@H]3C[C@H](F)C3)CC1)O2)c1c(SC)cc(C)[nH]c1=O (single isomer, unassigned) [Compound 53, isomer 2, 7-chloro-2-(4-((trans-3-fluorocyclobutyl)amino)cyclohexyl)-2,4-dimethyl-N-((6-methyl-4-(methylthio)-2-oxo-1,2-dihydropyridin-3-yl)methyl-d2)benzo[d][1,3]dioxole-5-carboxamide]
AUC [1, 4]: 954 ng·h/mL | C0 [1, 4]: 2665 ng/mL | T1/2 [1, 4]: 1.87 h | F % ([1]; ICR mice, listed as Compound 53, Isomer 2): 38.4% | AUC [1, 5]: 2201 ng·h/mL | Cmax [1, 5]: 476 ng/mL | T1/2 [1, 5]: 4.51 h | Tmax [1, 5]: 4.00 h

Compound: CSc1cc(C)[nH]c(=O)c1CNC(=O)c1cc(Cl)c2c(c1C)OC(C)(C1CCC(NC3COC3)CC1)O2 (single isomer, unassigned) [Compound 61, isomer 1, 7-chloro-2,4-dimethyl-N-((6-methyl-4-(methylthio)-2-oxo-1,2-dihydropyridin-3-yl)methyl)-2-(4-(oxetan-3-ylamino)cyclohexyl)benzo[d][1,3]dioxole-5-carboxamide]
IC50 (EZH2): 520 pM

Compound: CSc1cc(C)[nH]c(=O)c1CNC(=O)c1cc(Cl)c2c(c1C)OC(C)(C1CCN(C(=O)C3CC(F)(F)C3)CC1)O2 (single isomer, unassigned; isomer 1) [Compound 11, isomer 1, 7-chloro-2-(1-(3,3-difluorocyclobutane-1-carbonyl)piperidin-4-yl)-2,4-dimethyl-N-((6-methyl-4-(methylthio)-2-oxo-1,2-dihydropyridin-3-yl)methyl)benzo[d][1,3]dioxole-5-carboxamide]
IC50 (EZH2): 730 pM

Compound: CSc1cc(C)[nH]c(=O)c1CNC(=O)c1cc(Cl)c2c(c1C)OC(C)(C1CCN(C(=O)C3CC(F)(F)C3)CC1)O2 (single isomer, unassigned; isomer 2) [Compound 11, isomer 2, 7-chloro-2-(1-(3,3-difluorocyclobutane-1-carbonyl)piperidin-4-yl)-2,4-dimethyl-N-((6-methyl-4-(methylthio)-2-oxo-1,2-dihydropyridin-3-yl)methyl)benzo[d][1,3]dioxole-5-carboxamide]
IC50 (EZH2): 880 pM

Compound: [2H]C([2H])(NC(=O)c1cc(Cl)c2c(c1C)OC(C)(C1CCN(CC3CC(F)(F)C3)CC1)O2)c1c(SC)cc(C)[nH]c1=O (stereo not shown) [Compound 28, 7-chloro-2-(1-((3,3-difluorocyclobutyl)methyl)piperidin-4-yl)-2,4-dimethyl-N-((6-methyl-4-(methylthio)-2-oxo-1,2-dihydropyridin-3-yl)methyl-d2)benzo[d][1,3]dioxole-5-carboxamide]
IC50 (EZH2): 490 pM

Compound: COC1CC(N2CCC(C3(C)Oc4c(Cl)cc(C(=O)NCc5c(SC)cc(C)[nH]c5=O)c(C)c4O3)CC2)C1 (stereo not shown) [Compound 33, 7-chloro-2-(1-(3-methoxycyclobutyl)piperidin-4-yl)-2,4-dimethyl-N-((6-methyl-4-(methylthio)-2-oxo-1,2-dihydropyridin-3-yl)methyl)benzo[d][1,3]dioxole-5-carboxamide]
IC50 (EZH2): 570 pM

Compound: CSc1cc(C)[nH]c(=O)c1CNC(=O)c1cc(Cl)c2c(c1C)OC(C)(C1CCC(N(C)C3CC(F)(F)C3)CC1)O2 (stereo not shown) [Compound 35, 7-chloro-2-(4-((3,3-difluorocyclobutyl)(methyl)amino)cyclohexyl)-2,4-dimethyl-N-((6-methyl-4-(methylthio)-2-oxo-1,2-dihydropyridin-3-yl)methyl)benzo[d][1,3]dioxole-5-carboxamide]
IC50 (EZH2): 590 pM

Next, values leading:

IC50 (EZH2): 250 pM
Compound: CSc1cc(C)[nH]c(=O)c1CNC(=O)c1cc(Cl)c2c(c1C)OC(C)(C1CCC(NC3COC3)CC1)O2 (single isomer, unassigned) [Compound 61, isomer 2, 7-chloro-2,4-dimethyl-N-((6-methyl-4-(methylthio)-2-oxo-1,2-dihydropyridin-3-yl)methyl)-2-(4-(oxetan-3-ylamino)cyclohexyl)benzo[d][1,3]dioxole-5-carboxamide]

IC50 (EZH2): 920 pM
Compound: CSc1cc(C)[nH]c(=O)c1CNC(=O)c1cc(Cl)c2c(c1C)OC(C)([C@H]1CC[C@@H](C(=O)N3CC(F)(F)C3)CC1)O2 (single isomer, unassigned; isomer 2) [Compound 47, isomer 2, 7-chloro-2-(4-(3,3-difluoroazetidine-1-carbonyl)cyclohexyl)-2,4-dimethyl-N-(di-deuterated(6-methyl-4-(methylthio)-2-oxo-1,2-dihydropyridin-3-yl)di-deuterated-methyl)benzo[d][1,3]dioxole-5-carboxamide]

IC50 (EZH2): 610 pM
Compound: CSc1cc(C)[nH]c(=O)c1CNC(=O)c1cc(Cl)c2c(c1C)OC(C)(C1CCN(C(=O)c3csc(C)n3)CC1)O2 (stereo not shown) [Compound 21, 7-chloro-2,4-dimethyl-N-((6-methyl-4-(methylthio)-2-oxo-1,2-dihydropyridin-3-yl)methyl)-2-(1-(2-methylthiazole-4-carbonyl)piperidin-4-yl)benzo[d][1,3]dioxole-5-carboxamide]

IC50 (EZH2): 580 pM
Compound: CSc1cc(C)[nH]c(=O)c1CNC(=O)c1cc(Cl)c2c(c1C)OC(C)(C1CCN(C3CC3)CC1)O2 (stereo not shown) [Compound 24, 7-chloro-2-(1-cyclopropylpiperidin-4-yl)-2,4-dimethyl-N-((6-methyl-4-(methylthio)-2-oxo-1,2-dihydropyridin-3-yl)methyl)benzo[d][1,3]dioxole-5-carboxamide]

IC50 (EZH2): 580 pM
Compound: CSc1cc(C)[nH]c(=O)c1CNC(=O)c1cc(Cl)c2c(c1C)OC(C)(C1CCN(CC3(F)CC3)CC1)O2 (stereo not shown) [Compound 32, 7-chloro-2-(1-((1-fluorocyclopropyl)methyl)piperidin-4-yl)-2,4-dimethyl-N-((6-methyl-4-(methylthio)-2-oxo-1,2-dihydropyridin-3-yl)methyl)benzo[d][1,3]dioxole-5-carboxamide]
